Source: PubChem BioAssay (NCI)
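Assay format: 96-well plates, 48-hour exposure. At the TGI there is no net growth.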

How the values were obtained:
Assay in all cases: NCI-60 cell line screen, 48 h
[1] = test system: 786-0 renal
[2] = test system: A549 NSCLC
[3] = test system: ACHN renal
[4] = test system: BT-549 breast
[5] = test system: CAKI-1 renal
[6] = test system: CCRF-CEM leukemia
[7] = test system: COLO 205 colon
[8] = test system: DU-145 prostate
[9] = test system: HCC-2998 colon
[10] = test system: HCT-116 colon
[11] = test system: HCT-15 colon
[12] = test system: HL-60(TB) leukemia
[13] = test system: HOP-62 NSCLC
[14] = test system: HOP-92 NSCLC
[15] = test system: HS 578T breast
[16] = test system: HT29 colon
[17] = test system: IGROV1 ovarian
[18] = test system: K-562 leukemia
[19] = test system: KM12 colon
[20] = test system: LOX IMVI melanoma
[21] = test system: M14 melanoma
[22] = test system: MALME-3M melanoma
[23] = test system: MCF7 breast
[24] = test system: MDA-MB-231 breast
[25] = test system: MDA-MB-435
[26] = test system: MDA-N
[27] = test system: MOLT-4 leukemia
[28] = test system: NCI-H23 lung
[29] = test system: NCI-H460 lung
[30] = test system: NCI/ADR-RES ovarian
[31] = test system: OVCAR-3 ovarian
[32] = test system: OVCAR-4 ovarian
[33] = test system: OVCAR-5 ovarian
[34] = test system: PC-3 prostate
[35] = test system: RPMI-8226 leukemia
[36] = test system: RXF 393 renal
[37] = test system: SF-268 CNS
[38] = test system: SF-295 CNS
[39] = test system: SF-539 CNS
[40] = test system: SK-MEL-2 melanoma
[41] = test system: SK-MEL-28 melanoma
[42] = test system: SK-MEL-5 melanoma
[43] = test system: SK-OV-3 ovarian
[44] = test system: SN12C renal
[45] = test system: SNB-19 CNS
[46] = test system: SNB-75 CNS
[47] = test system: SR leukemia
[48] = test system: SW-620 colon
[49] = test system: T-47D breast
[50] = test system: TK-10 renal
[51] = test system: U251 CNS
[52] = test system: UACC-257 melanoma
[53] = test system: UACC-62 melanoma
[54] = test system: UO-31 renal
[55] = test system: EKVX NSCLC
[56] = test system: NCI-H226 lung
[57] = test system: NCI-H522 lung
[58] = test system: OVCAR-8 ovarian
[59] = test system: A498 renal

Measured: TGI

CCOC(=O)c1c(-c2ccc(Cl)cc2)c(C#N)c(=S)n(C2OC(COC(C)=O)C(OC(C)=O)C(OC(C)=O)C2OC(C)=O)c1-c1ccccc1 (stereo not given)
> 100 µM: [1] | [2] | [3] | [4] | [5] | [6] | [7] | [8] | [9] | [10] | [11] | [12] | [13] | [15] | [16] | [17] | [18] | [19] | [20] | [21] | [22] | [23] | [24] | [25] | [26] | [27] | [28] | [29] | [30] | [31] | [32] | [33] | [34] | [35] | [36] | [37] | [38] | [39] | [40] | [41] | [42] | [43] | [44] | [45] | [46] | [47] | [48] | [49] | [50] | [51] | [52] | [53] | [54]
81.7 µM: [14]

COC1CC(OC2C(C)OC(OC3C(C)OC(OC4C(O)CC(O[C@H]5CC[C@@]6(C)C(=CC[C@]7(O)[C@@H]6C[C@@H](OC(C)=O)[C@@]6(C)[C@]7(O)CC[C@@]6(O)C(C)=O)C5)OC4C)CC3OC)CC2OC)OC(C)C1O (stereo not given in full)
> 12.5 µM: [1] | [2] | [3] | [4] | [5] | [6] | [7] | [8] | [55] | [9] | [10] | [11] | [12] | [13] | [14] | [15] | [16] | [17] | [18] | [19] | [20] | [21] | [22] | [23] | [24] | [25] | [26] | [27] | [56] | [28] | [57] | [30] | [31] | [32] | [33] | [58] | [34] | [35] | [37] | [38] | [39] | [40] | [42] | [43] | [44] | [45] | [46] | [47] | [48] | [49] | [50] | [51] | [52] | [53] | [54]

CCOC(=O)c1sc2nc(SC)nc3c2c1NCN3c1ccc(F)c(F)c1
35.6 µM: [59]
43.5 µM: [43]
46.2 µM: [24]
> 63.3 µM: [54]
> 49.1 µM: [22]
> 45.8 µM: [26]
17.7 µM: [32]
25.3 µM: [2]
65.9 µM: [38]
64.1 µM: [50]
12.4 µM: [1]
> 83.2 µM: [45]
> 60.1 µM: [20]
54.6 µM: [10]
75.3 µM: [28]
19.5 µM: [31]
> 64 µM: [9]
> 79.9 µM: [56]
41.7 µM: [25]
83 µM: [14]
29.4 µM: [58]
> 59.8 µM: [34]
16.7 µM: [36]
> 86.5 µM: [19]
> 88.8 µM: [30]
> 66.5 µM: [4]
30.8 µM: [15] | [51]
> 100 µM: [3] | [5] | [6] | [7] | [8] | [55] | [11] | [12] | [16] | [17] | [18] | [21] | [23] | [27] | [29] | [57] | [33] | [35] | [37] | [40] | [41] | [42] | [44] | [47] | [48] | [49] | [52] | [53]
34.1 µM: [13]
11.7 µM: [39]

c1ccc(CN[C@]23C4C5CC6C7C5C2C7[C@@](NCc2ccccc2)(C64)N3Cc2ccccc2)cc1 (stereo not given in full)
> 100 µM: [1] | [59] | [2] | [3] | [4] | [5] | [6] | [7] | [8] | [55] | [10] | [11] | [12] | [13] | [14] | [15] | [16] | [17] | [18] | [19] | [20] | [21] | [22] | [23] | [24] | [25] | [26] | [27] | [56] | [28] | [29] | [57] | [30] | [31] | [32] | [33] | [58] | [34] | [35] | [36] | [37] | [38] | [39] | [40] | [41] | [42] | [43] | [44] | [45] | [46] | [47] | [48] | [49] | [50] | [51] | [52] | [53] | [54]
